Consider 27 molecules from patent US6320051A, “Quinolones used as MRS inhibitors and bactericides” (SmithKline Beecham plc, priority 1998, dated 2001).

Each structure is given as a SMILES string. In brackets after ≈: the same amount, converted by molar mass. Where a name gives a salt, the structure may show the parent alone. Read-outs that look alike come from different tables or passages of the source.

In one assay the test system is M. Catarrhalis. Kind of assay: Antibacterial activity, standard MIC assay modified by inclusion of cyclodextrin. It counts as cell-based. The note with it: Moraxella catarrhalis; MIC assay with cyclodextrin; range over the listed Examples; read-out: MIC against M. Catarrhalis. The procedure: (§1) Compounds of the present invention were assayed for antibacterial activity against a range of pathogenic organisms (strains of S aureus, S pneumoniae, E faecalis, H influenzae and M catarrhalis) in a standard MIC assay modified by the inclusion of cyclodextrin, to assist with solubility.

In assay [1] the test system is S. aureus, S. pneunmoniae, and E. faecalis. The assay is described as above. The class given is cell-based. The conditions noted are these: read-out: MIC against some strains of S. aureus, S. pneumoniae and E. faecalis. The procedure: as §1
In a further assay the test system is H. influenzae. The assay is described as above. It counts as cell-based. The conditions noted are these: MIC assay with cyclodextrin. The procedure: as §1
The test system of assay [2] is isoleucyl t-RNA synthetase. The conditions noted are these: background of the invention; cited from earlier work.
Where [3] appears, read: some strains of the organisms, MIC assay with cyclodextrin.

Regarding `Cl.O=c1cc(NCCCNCc2ccc(Cl)c(Cl)c2)[nH]c2ccccc12` [Example 18, 2-[3-(3,4-Dichlorobenzylamino)prop-1-ylamino]-1H-quinolin-4-one hydrochloride], the MIC with M. Catarrhalis is 2 to 64 µg/mL; in assay [1], less than 1 µg/mL.

On to `O=c1cc(NCCCNCc2cc(I)cc(I)c2)[nH]c2ccccc12` [Example 36, 2-[3-(3,5-Diiodobenzylamino)prop-1-ylamino]-1H-quinolin-4-one], for which the MIC is 2 to 64 µg/mL (≈ 3.58 to 114 µM) in the assay on M. Catarrhalis and less than 1 µg/mL in assay [1] (setting [3]).

For the molecule `O=c1cc(NCCCNCc2cc(Br)c(Br)s2)[nH]c2ccccc12` [Example 37], the MIC was 2 to 64 µg/mL (≈ 4.24 to 136 µM) in the assay on M. Catarrhalis and less than 1 µg/mL in assay [1] (setting [3]).

Turning to `O=c1cc(NCCCNCc2ccc(Cl)c(C(F)(F)F)c2)[nH]c2ccccc12` [Example 38, 2-[3-(4-Chloro-3-trifluoromethylbenzylamino)prop-1-ylamino]-1H-quinolin-4-one], the MIC is 2 to 64 µg/mL (≈ 4.88 to 156 µM) with M. Catarrhalis and less than 1 µg/mL in assay [1] (setting [3]).

On to `O=c1cc(NCCCNCc2cc(Cl)cc(Cl)c2OCc2ccccc2)[nH]c2ccccc12` [Example 39, 2-[3-(2-Benzyloxy-3,5-dichlorobenzylamino)prop-1-ylamino]-1H-quinolin-4-one], for which the values for the MIC (in the assay with M. Catarrhalis; in assay [1] (setting [3])) were 2 to 64 µg/mL (≈ 4.15 to 133 µM) and less than 1 µg/mL, respectively.

Regarding `O=c1cc(NCCCNCc2cc(Br)cc(Br)c2)[nH]c2ccccc12` [Example 40, 2-[3-(3,5-Dibromobenzylamino)prop-1-ylamino]-1H-quinolin-4-one], the MIC was 2 to 64 µg/mL (≈ 4.3 to 138 µM) in the assay on M. Catarrhalis and less than 1 µg/mL in assay [1] (setting [3]).

Take `Cc1c(Br)cc(CNCCCNc2cc(=O)c3ccccc3[nH]2)cc1Br` [Example 41, 2-[3-(3,5-Dibromo-4-methylbenzylamino)prop-1-ylamino]-1H-quinolin-4-one]: the MIC is 2 to 64 µg/mL (≈ 4.17 to 134 µM) in the assay on M. Catarrhalis and less than 1 µg/mL in assay [1] (setting [3]).

For `O=c1cc(NCCCNCc2cc(Br)c(Br)c(Br)c2)[nH]c2ccccc12` [Example 42, 2-[3-(3,4,5-Tribromobenzylamino)prop-1-ylamino]-1H-quinolin-4-one], the figures for the MIC (in the assay with M. Catarrhalis; in assay [1] (setting [3])) were 2 to 64 µg/mL (≈ 3.68 to 118 µM) and less than 1 µg/mL, respectively.

In the case of `O=c1cc(NCCCNCc2cc(Br)cc(I)c2)[nH]c2ccccc12` [Example 43, 2-[3-(3-Bromo-5-iodobenzylamino)prop-1-ylamino]-1H-quinolin-4-one], the MIC was 2 to 64 µg/mL (≈ 3.9 to 125 µM) with M. Catarrhalis and less than 1 µg/mL in assay [1] (setting [3]).

Take `O=c1cc(NCCCNCc2cc(Cl)cc(Cl)c2Cl)[nH]c2ccccc12` [Example 45, 2-[3-(2,3,5-Trichliorobenzylamino)prop-1-ylamino]-1H-quinolin-4-one dihydrochloride]: the MIC with M. Catarrhalis was 2 to 64 µg/mL; in assay [1] (setting [3]), less than 1 µg/mL.

In the case of `CCOc1c(Br)cc(Br)cc1CNCCCNc1cc(=O)c2ccccc2[nH]1.Cl.Cl` [Example 46, 2-[3-(3,5-Dibromo-2-ethoxybenzylamino)prop-1-ylamino]-1H-quinolin-4-one dihydrochloride], the MIC is 2 to 64 µg/mL in the assay on M. Catarrhalis and less than 1 µg/mL in assay [1] (setting [3]).

As to `O=c1cc(NCCCNC2CCc3c(Cl)sc(Cl)c32)[nH]c2ccccc12` (stereo not shown) [Example 47, 2-[3-(1,3-Dichloro-5,6-dihydro-4H-cyclopenta[c]thiophen-4-ylamino]prop-1-ylamino}-1H-quinolin-4-one], the MIC was 2 to 64 µg/mL (≈ 4.9 to 157 µM) in the assay with M. Catarrhalis and less than 1 µg/mL in assay [1] (setting [3]).

Turning to `O=c1cc(NCCCNC2CCCc3c(Cl)cc(Cl)cc32)[nH]c2ccccc12` (stereo not shown) [Example 51, 2-[3-(5,7-Dichloro-1,2,3,4-tetrahydronaphth-1-ylamino)prop-1-ylamino]-1H-quinolin-4-one], the MIC with M. Catarrhalis was 2 to 64 µg/mL (≈ 4.8 to 154 µM); in assay [1], less than 1 µg/mL.

With `O=c1cc(NCCCNC2CCCc3c2cc(Cl)c(Cl)c3Cl)[nH]c2ccccc12` (stereo not shown) [Example 53, 2-[3-(5,6,7-Trichloro-1,2,3,4-tetrahydronaphth-1-ylamino)prop-1-ylamino]-1H-quinolin-4-one], the MIC in the assay with M. Catarrhalis was 2 to 64 µg/mL (≈ 4.44 to 142 µM); in assay [1], less than 1 µg/mL.

Consider `O=c1cc(NCCCNC2CCc3c(Cl)cc(Cl)cc32)[nH]c2ccccc12` (stereo not shown) [Example 55, 2-[3-(4,6-Dichloroindan-1-ylamino)prop-1-ylamino]-1H-quinolin-4-one], for which the values for the MIC (in the assay with M. Catarrhalis; in assay [1]) were 2 to 64 µg/mL (≈ 4.97 to 159 µM) and less than 1 µg/mL, respectively.

Turning to `O=c1cc(NCC2CCCC2NCc2ccc(Cl)c(Cl)c2)[nH]c2ccccc12` (stereo not shown) [Example 60, 2-{[2-(3,4-Dichlorobenzylamino)cyclopentyl]methylamino}-1H-quinolin-4-one], the figures for the MIC (with M. Catarrhalis; in assay [1]) were 2 to 64 µg/mL (≈ 4.8 to 154 µM) and less than 1 µg/mL, respectively.

Consider `O=c1cc(NCCCNC2CCCc3c2[nH]c2ccccc32)[nH]c2ccccc12` (stereo not shown) [Example 64, 2-[3-(2,3,4,9-Tetrahydro-1H-carbazol-1-ylamino)prop-1-ylamino]-1H-quinolin-4-one], for which the “antibacterial activity against H. influenzae” value in the assay on H. influenzae is on record as “active”.

Turning to `CC(C)(C)OC(=O)COc1c(Cl)cc(Cl)cc1CNCCCNc1cc(=O)c2ccccc2[nH]1` [Example 67, 2-[3-(2-tert-Butoxycarbonylmethoxy-3,5-dichlorobenzylamino)prop-1-ylamino]-1H-quinolin-4-one], the MIC is 2 to 64 µg/mL (≈ 3.95 to 126 µM) with M. Catarrhalis and less than 1 µg/mL in assay [1] (setting [3]).

As for `C=CCOc1c(Cl)cc(Cl)cc1CNCCCNc1cc(=O)c2ccccc2[nH]1` [Example 68, 2-[3-(2-Allyloxy-3,5-dichlorobenzylamino)prop-1-ylamino]-1H-quinolin-4-one], the MIC with M. Catarrhalis is 2 to 64 µg/mL (≈ 4.63 to 148 µM); in assay [1] (setting [3]) it was less than 1 µg/mL.

For `O=c1cc(NCCCNCc2cc(Cl)cc(Cl)c2OCCc2ccccc2)[nH]c2ccccc12` [Example 69, 2-[3-(3,5-Dichloro-2-phenethoxybenzylamino)propylamino]-1H-quinolin-4-one], the MIC in the assay with M. Catarrhalis is 2 to 64 µg/mL (≈ 4.03 to 129 µM); in assay [1] (setting [3]), less than 1 µg/mL.

For `O=c1cc(NC[C@H]2CCC[C@@H]2NCc2ccc(Cl)c(Cl)c2)[nH]c2ccccc12` [Example 71, 2-{[(1R,2S)-2-(3,4-Dichlorobenzylamino)cyclopentylmethyl]amino}-1H-quinolin-4-one], the MIC in the assay on M. Catarrhalis is 2 to 64 µg/mL (≈ 4.8 to 154 µM); in assay [1], less than 1 µg/mL.

With `O=c1cc(NC[C@H]2CCC[C@@H]2NCc2cc(Br)cc(Br)c2)[nH]c2ccccc12` [Example 73, 2-{[(1R,2S)-2-(3,5-Dibromobenzylamino)cyclopentyl-methyl]amino}-1H-quinolin-4-one], the MIC with M. Catarrhalis is 2 to 64 µg/mL (≈ 3.96 to 127 µM); in assay [1] (setting [3]), less than 1 µg/mL.

With `O=c1cc(NC[C@H]2CCC[C@@H]2NCc2cc(Br)c(Br)s2)[nH]c2ccccc12` [Example 74, 2-{[(1R,2S)-2-(4,5-Dibromo-2-thiophenemethylamino)-cyclopentylmethyl]amino}-1H-quinolin-4-one], the MIC in the assay with M. Catarrhalis was 2 to 64 µg/mL (≈ 3.91 to 125 µM); in assay [1] (setting [3]) it was less than 1 µg/mL.

With `CCOc1c(Br)cc(Br)cc1CN[C@H]1CCC[C@@H]1CNc1cc(=O)c2ccccc2[nH]1` [Example 75, 2-{[(1R,2S)-2-(3,5-Dibromo-2-ethoxybenzylamino)cyclopentyl-methyl]amino}-1H-quinolin-4-one], the results for the MIC (with M. Catarrhalis; in assay [1] (setting [3])) were 2 to 64 µg/mL (≈ 3.64 to 117 µM) and less than 1 µg/mL, respectively.

In the case of `O=c1cc(NCCCNCc2cc3c(Cl)cc(Cl)cc3[nH]2)[nH]c2ccccc12` [Example 76, 2-[3-(4,6-Dichloroindol-2-ylmethylamino)prop-1-ylamino]-1H-quinolin-4-one], the MIC was 2 to 64 µg/mL (≈ 4.82 to 154 µM) in the assay with M. Catarrhalis and less than 1 µg/mL in assay [1] (setting [3]).

As to `Nc1c(Br)cc(Br)cc1CNCCCNc1cc(=O)c2ccccc2[nH]1` [Example 77, 2-[3-(2-Amino-3,5-dibromobenzylamino)prop-1-ylamino]-1H-quinolin-4-one], the results for the MIC (in the assay on M. Catarrhalis; in assay [1] (setting [3])) were 2 to 64 µg/mL (≈ 4.16 to 133 µM) and less than 1 µg/mL, respectively.

As for `C/C(=C\C(=O)OCCCCCCCCC(=O)O)C[C@@H]1OC[C@H](C[C@@H]2O[C@H]2[C@@H](C)[C@H](C)O)[C@@H](O)[C@H]1O` [Mupirocin], in assay [2], the “inhibition of isoleucyl t-RNA synthetase” value is “inhibitor”.

Broadly, the MIC is the lowest concentration that inhibits growth of the organism.
